{"source": "ChEMBL document CHEMBL1201862", "about": "“PubChem BioAssay data set” (2004)", "key": {"[1]": {"target": "T1, Corticotropin-releasing factor receptor 2/Corticotropin-releasing factor-binding protein (Homo sapiens, UniProt P24387+Q13324)", "T1 sequence (Q13324 whole entry)": "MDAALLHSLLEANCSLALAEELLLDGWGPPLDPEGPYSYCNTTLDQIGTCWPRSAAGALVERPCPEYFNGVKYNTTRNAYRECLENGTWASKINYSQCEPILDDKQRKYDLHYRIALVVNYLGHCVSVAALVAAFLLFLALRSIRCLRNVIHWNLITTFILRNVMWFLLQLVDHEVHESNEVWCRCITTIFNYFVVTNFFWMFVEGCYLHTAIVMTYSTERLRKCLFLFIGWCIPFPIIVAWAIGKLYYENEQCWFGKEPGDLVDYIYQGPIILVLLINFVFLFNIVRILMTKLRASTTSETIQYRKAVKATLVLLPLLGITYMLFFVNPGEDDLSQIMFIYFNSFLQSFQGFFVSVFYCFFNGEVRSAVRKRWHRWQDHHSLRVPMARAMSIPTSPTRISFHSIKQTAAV", "T1 sequence (P24387 whole entry)": "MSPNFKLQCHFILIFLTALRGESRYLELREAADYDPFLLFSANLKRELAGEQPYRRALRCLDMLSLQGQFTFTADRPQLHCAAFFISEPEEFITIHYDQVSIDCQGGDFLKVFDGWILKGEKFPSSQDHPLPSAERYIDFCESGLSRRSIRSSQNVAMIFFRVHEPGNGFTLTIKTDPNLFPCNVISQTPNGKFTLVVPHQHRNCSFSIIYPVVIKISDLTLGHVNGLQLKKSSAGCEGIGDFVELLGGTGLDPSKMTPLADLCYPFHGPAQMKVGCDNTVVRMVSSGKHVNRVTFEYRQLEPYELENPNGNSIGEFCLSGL", "test": "activators of CRF receptor 2 with binding protein – uHTS hits, confirmation (AID 602473)", "format": "functional", "conditions": "read-out: EC50_Mean"}, "[2]": {"test": "Luminescence Cell-Based Dose Confirmation HTS to Identify Activators of 5'UTR Stem-Loop Driven Alpha-Synuclein mRNA Translation in H4 Neuroglioblastoma Cells. [Related pubchem assays: 1829 (Project Summary), 1814 (Primary HTS)]", "format": "functional"}, "H4": {"system": "H4", "test": "Luminescence Cell-Based Dose Response HTS to Identify Activators of 5'UTR Stem-Loop Driven Prion Protein mRNA Translation in H4 Neuroglioblastoma Cells. [Related pubchem assays: 1829 (Project Summary), 1814 (Primary HTS)]", "format": "functional", "conditions": "Homo sapiens"}, "Keap1/Nrf2": {"target": "Keap1/Nrf2 (Homo sapiens, UniProt Q14145)", "sequence (Q16236 whole entry)": "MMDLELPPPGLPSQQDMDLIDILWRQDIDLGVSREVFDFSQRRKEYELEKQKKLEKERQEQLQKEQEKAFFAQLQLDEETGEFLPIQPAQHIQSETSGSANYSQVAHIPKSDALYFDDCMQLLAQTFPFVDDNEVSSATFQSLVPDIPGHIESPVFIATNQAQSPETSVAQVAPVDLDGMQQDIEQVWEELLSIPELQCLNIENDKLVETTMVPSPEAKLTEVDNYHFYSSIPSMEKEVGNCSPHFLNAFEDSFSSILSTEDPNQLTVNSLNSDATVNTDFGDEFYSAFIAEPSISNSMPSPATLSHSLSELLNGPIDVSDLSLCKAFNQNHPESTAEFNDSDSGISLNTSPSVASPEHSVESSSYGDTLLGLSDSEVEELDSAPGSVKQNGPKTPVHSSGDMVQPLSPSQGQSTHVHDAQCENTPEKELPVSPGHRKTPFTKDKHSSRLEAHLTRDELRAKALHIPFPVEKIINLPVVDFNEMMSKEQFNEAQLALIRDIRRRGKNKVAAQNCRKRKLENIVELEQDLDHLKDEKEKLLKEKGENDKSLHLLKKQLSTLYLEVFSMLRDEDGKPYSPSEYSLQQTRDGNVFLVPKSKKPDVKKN", "sequence (Q14145 whole entry)": "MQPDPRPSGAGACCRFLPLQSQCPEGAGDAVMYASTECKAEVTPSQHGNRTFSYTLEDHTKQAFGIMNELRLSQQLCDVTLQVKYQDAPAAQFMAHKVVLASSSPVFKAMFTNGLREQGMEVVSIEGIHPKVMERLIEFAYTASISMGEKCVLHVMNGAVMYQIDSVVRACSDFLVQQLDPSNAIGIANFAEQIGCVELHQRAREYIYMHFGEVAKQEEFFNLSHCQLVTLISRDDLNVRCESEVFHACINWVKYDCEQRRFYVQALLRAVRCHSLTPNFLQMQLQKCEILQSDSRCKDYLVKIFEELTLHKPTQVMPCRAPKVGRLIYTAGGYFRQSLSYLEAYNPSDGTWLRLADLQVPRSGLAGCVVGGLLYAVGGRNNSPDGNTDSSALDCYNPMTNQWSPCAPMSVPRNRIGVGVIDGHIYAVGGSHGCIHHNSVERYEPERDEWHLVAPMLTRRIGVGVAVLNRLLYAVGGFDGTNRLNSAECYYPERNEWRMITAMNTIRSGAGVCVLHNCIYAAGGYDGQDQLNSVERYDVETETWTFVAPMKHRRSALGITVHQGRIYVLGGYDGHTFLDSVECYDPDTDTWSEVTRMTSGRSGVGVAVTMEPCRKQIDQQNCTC", "test": "disruptors of Keap1 binding to Nrf2 peptide – biochemical, fluorescence polarization, cherry-picked samples, dose response (AID 588683)"}, "[3]": {"test": "Luminescence Cell-Based Dose Response HTS to Identify Activators of Luciferase Translation or Activity in H4 […] Cells. [Related pubchem assays: 1829 (Project Summary), 1814 (Primary HTS)]", "format": "functional"}, "[4]": {"target": "Nucleotide-binding oligomerization domain-containing protein 1 (Homo sapiens, UniProt Q9Y239)", "sequence (Q9Y239 whole entry, the tested form may be a part)": "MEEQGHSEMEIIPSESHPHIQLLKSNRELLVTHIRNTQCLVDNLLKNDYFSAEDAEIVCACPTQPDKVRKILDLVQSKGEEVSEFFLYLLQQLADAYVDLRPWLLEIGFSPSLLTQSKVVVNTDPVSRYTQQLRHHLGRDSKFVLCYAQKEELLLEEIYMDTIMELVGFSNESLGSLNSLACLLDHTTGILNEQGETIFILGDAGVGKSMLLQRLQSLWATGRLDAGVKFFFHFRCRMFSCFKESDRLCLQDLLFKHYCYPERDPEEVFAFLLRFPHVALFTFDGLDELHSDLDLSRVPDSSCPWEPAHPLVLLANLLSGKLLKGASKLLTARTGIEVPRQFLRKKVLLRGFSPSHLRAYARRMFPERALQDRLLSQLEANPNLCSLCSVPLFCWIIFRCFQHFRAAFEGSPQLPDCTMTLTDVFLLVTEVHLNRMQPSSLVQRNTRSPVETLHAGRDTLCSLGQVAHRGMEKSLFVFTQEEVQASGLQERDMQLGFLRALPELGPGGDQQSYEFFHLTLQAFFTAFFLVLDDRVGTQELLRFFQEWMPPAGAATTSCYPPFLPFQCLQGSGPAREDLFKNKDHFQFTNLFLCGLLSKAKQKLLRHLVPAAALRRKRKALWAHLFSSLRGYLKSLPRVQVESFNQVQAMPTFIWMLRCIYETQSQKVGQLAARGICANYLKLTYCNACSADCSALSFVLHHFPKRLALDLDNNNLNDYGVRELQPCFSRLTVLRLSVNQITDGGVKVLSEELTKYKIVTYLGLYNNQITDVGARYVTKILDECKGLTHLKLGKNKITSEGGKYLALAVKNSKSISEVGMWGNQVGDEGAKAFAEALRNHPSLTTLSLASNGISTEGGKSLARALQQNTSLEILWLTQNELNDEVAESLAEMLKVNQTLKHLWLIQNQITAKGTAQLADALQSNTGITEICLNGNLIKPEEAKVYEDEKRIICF", "test": "blockers of NOD1 pathway activity – revised, SAR follow-up (AID 2333)", "format": "functional"}, "INS1": {"system": "INS1", "test": "INS-1E survival protection against cytokine death – cell-based, luminescence, retest, dose response (AID 449756);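 note: cell death triggered by IL-1 beta plus TNF-alpha plus IFN-gamma mixture; protective hits raise ATP signal compared with cytokine alone wells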", "format": "functional", "conditions": "Rattus norvegicus"}, "Tumor necrosis factor": {"target": "Tumor necrosis factor (Homo sapiens, UniProt P01375)", "sequence (P01375 whole entry)": "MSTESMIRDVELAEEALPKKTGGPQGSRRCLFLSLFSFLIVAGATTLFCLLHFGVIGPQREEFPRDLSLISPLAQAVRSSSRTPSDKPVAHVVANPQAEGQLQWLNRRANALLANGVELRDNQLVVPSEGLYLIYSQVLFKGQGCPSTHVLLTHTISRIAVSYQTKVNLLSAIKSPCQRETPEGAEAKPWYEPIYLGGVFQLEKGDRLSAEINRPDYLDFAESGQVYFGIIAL", "test": "analog potency on TNFa NF-kB signaling – cell-based, revised, SAR follow-up (AID 2337)", "format": "functional"}, "HEK293": {"system": "HEK293", "test": "cells", "conditions": "Homo sapiens"}, "Cytochrome P450 2D6": {"target": "Cytochrome P450 2D6 (Homo sapiens, UniProt P10635)", "sequence (P10635 whole entry)": "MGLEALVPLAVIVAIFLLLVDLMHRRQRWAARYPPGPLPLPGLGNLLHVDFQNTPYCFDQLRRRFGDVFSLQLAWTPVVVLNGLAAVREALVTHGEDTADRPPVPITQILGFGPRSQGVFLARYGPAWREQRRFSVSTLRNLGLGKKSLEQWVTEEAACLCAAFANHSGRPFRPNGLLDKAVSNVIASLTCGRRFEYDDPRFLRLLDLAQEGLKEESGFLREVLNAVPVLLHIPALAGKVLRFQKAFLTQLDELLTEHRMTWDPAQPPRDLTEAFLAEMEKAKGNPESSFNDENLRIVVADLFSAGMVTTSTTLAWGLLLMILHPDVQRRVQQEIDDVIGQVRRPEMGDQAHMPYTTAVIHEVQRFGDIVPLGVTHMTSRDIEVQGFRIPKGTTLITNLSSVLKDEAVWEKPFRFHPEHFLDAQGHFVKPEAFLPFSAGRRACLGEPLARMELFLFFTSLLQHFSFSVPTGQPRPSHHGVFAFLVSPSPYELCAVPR"}}, "note": "Activity calls are given as the source filed them.", "data": [{"smiles": "O=S(=O)([N-]c1nc2ccccc2nc1-[n+]1ccc(-c2ccncc2)cc1)c1ccccc1", "values": [{"measurement": "EC50", "setting": "[1]", "result": "> 53 µM (inactive)"}, {"measurement": "EC50", "setting": "[2]", "result": "55 µM (active)"}, {"measurement": "EC50", "setting": "H4", "result": "> 120 µM (not active)"}, {"measurement": "AC50", "setting": "Keap1/Nrf2", "result": "31.5 µM (active)"}, {"measurement": "EC50", "setting": "[3]", "result": "9.78 µM (active)"}]}, {"smiles": "CC(=O)c1ccc(N2CCN(S(=O)(=O)c3ccc4c(c3)CC(C)N4C(C)=O)CC2)cc1", "note": "(stereo not given)", "values": [{"measurement": "IC50", "setting": "[4]", "result": "4.42 µM (active)"}, {"measurement": "AC50", "setting": "INS1", "result": "6.79 µM (active)"}, {"measurement": "IC50", "setting": "Tumor necrosis factor", "result": "6.5 µM (active)"}, {"measurement": "IC50", "setting": "HEK293", "result": "> 20 µM (inactive)"}]}, {"smiles": "C#C[C@H](N)CCC(=O)O", "values": [{"measurement": "AC50", "setting": "Cytochrome P450 2D6", "result": "inconclusive"}]}]}
